Read-outs that look alike come from different tables or passages of the source. Where no end group is shown, it is not given here.
Columns and labels:
Assay in all cases: biochemical
Assay type in all cases: binding
DRB1*0401 = DRB1*0401 (Homo sapiens, UniProt P01903+P01911, A100K/A169T/F76Y/I96L/K127E/L162R/M171V/N62H/P40V/Q125Y/R42H/S133A/S149N/S66Y/V115G/V209L/W38E)
DRB3*0101 = DRB3*0101 (Homo sapiens, UniProt P01903+P79483)
DRB1*0405 = DRB1*0405 (Homo sapiens, UniProt P01903+P01911, A100R/A169T/D86S/F76Y/I96L/K127E/L162R/M171V/N62H/P40V/Q125Y/R42H/S133A/S149N/S66Y/V115G/V209L/W38E)
DRB5*0101 = DRB5*0101 (Homo sapiens, UniProt P01903+Q30154)
DRB1*0101 = DRB1*0101 (Homo sapiens, UniProt P01903+P01911, A100R/D57E/F55L/F60I/F76Y/I96L/L162R/M171V/P40L/Q125E/R42F/V115G/Y59C)
DRB1*0701 = DRB1*0701 (Homo sapiens, UniProt P01903+P01911, A100R/A102G/A103Q/D57E/D86V/E43K/F76Y/K127E/L162R/M171V/P40G/Q125H/Q99D/R33Q/R42Y/R54Q/S133A/S66F/T210M/V115G/Y107V/Y59L/Y89S)
DRB1*0301 = DRB1*0301 (Homo sapiens, UniProt P01903+P01911, A100K/A102G/A103R/A169T/F55Y/I96L/K41T/L162R/M171V/P40S/Q125H/Q178H/Q39Y/R42S/S66N/T106N/T262R/W38E/Y61H)
Chain of DRB1*0301 (P01903 26-254, other chains not shown): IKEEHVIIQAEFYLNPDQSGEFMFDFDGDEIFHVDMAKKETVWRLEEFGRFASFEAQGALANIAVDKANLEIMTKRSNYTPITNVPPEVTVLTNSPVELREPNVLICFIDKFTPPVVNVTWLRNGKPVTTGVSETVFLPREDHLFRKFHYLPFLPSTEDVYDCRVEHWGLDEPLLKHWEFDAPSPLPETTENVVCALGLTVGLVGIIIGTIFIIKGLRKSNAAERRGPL

DRB1*1501 = DRB1*1501 (Homo sapiens, UniProt P01903+P01911)
DRB1*1302 = DRB1*1302 (Homo sapiens, UniProt P01903+P01911, A100E/A169T/K41T/L162R/M171V/P40S/Q125H/Q178H/Q39Y/Q99D/R42S/S66N/T262R/V115G/W38E/Y61H)
Chain of DRB1*1302 (P01903 26-254 limits assumed, other chains not shown): as the sequence (P01903 26-254, other chains not shown) above

DRB1*0404 = DRB1*0404 (Homo sapiens, UniProt P01903+P01911, A100R/A169T/F76Y/I96L/K127E/L162R/M171V/N62H/P40V/Q125Y/R42H/S133A/S149N/S66Y/V209L/W38E)
DRB1*0901 = DRB1*0901 (Homo sapiens, UniProt P01903+P01911, A100R/A103E/D57H/D86V/F55Y/F60I/F76Y/I96F/K127E/L162R/M171V/P40D/Q125H/Q99R/R33Q/R42F/S133A/S66N/T210M/V115G/W38K/Y107V/Y59G/Y89S)
DRB1*0802 = DRB1*0802 (Homo sapiens, UniProt P01903+P01911, A100R/A103L/A169T/F76Y/H45Y/I96F/K41T/L162R/M171V/P40S/Q125H/Q178H/Q39Y/Q99D/R218S/R42G/S66Y/V115G/W38E)
DRB4*0101 = DRB4*0101 (Homo sapiens, UniProt P01903+P13762, G164S)
[1] = competitive inhibition of radiolabeled standard peptide, DRB1*1302, read-out: Binding Affinity (nM) DRB1*1302
[2] = competitive inhibition of radiolabeled standard peptide, DRB1*0901, read-out: Binding Affinity (nM) DRB1*0901

Molecule | IC50 (DRB1*0401) [nM] | IC50 (DRB3*0101) [nM] | IC50 (DRB1*0405) [nM] | IC50 (DRB5*0101) [nM] | IC50 (DRB1*0101) [nM] | IC50 (DRB1*0701) [nM] | IC50 (DRB1*0301) [nM] | IC50 (DRB1*1501) [nM] | IC50 (DRB1*1302) [nM] | IC50 (DRB1*0404) [nM] | IC50 (DRB1*0901) [nM] | IC50 (DRB1*0802) [nM] | IC50 (DRB4*0101) [µM] | IC50 (DRB1*1302; [1]) [nM] | IC50 (DRB1*0901; [2]) [nM] | IC50 (DRB1*1302; competitive inhibition of radiolabeled standard peptide, '-' distinct from ND, read-out: Binding Affinity (nM) DRB1*1302) [nM] | IC50 (DRB1*0901; competitive inhibition of radiolabeled standard peptide, '-' distinct from ND, read-out: Binding Affinity (nM) DRB1*0901) [nM]
CC(C)C[C@H](NC(=O)[C@H](CCC(=O)O)NC(=O)[C@H](CCCCN)NC(=O)[C@@H](N)CCCNC(=N)N)C(=O)N[C@@H](CC(C)C)C(=O)N[C@H](C(=O)N[C@H](C(=O)N[C@@H](Cc1ccccc1)C(=O)N[C@@H](CCCCN)C(=O)N[C@@H](CC(N)=O)C(=O)N[C@@H](C)C(=O)N[C@@H](Cc1c[nH]cn1)C(=O)N[C@@H](C)C(=O)N[C@@H](CCCCN)C(=O)N[C@@H](CCCCN)C(=O)O)[C@@H](C)O)C(C)C [Envelope 231-245] | 3.5 | 16500 | 31 | 25 | 5.1 | 3780 | 2320 | 5.2 | 17200 | 1590 | 48 | 7.2 | 0.057 | – | – | – | –
CC[C@H](C)[C@H](NC(=O)[C@H](C)NC(=O)[C@H](CC(N)=O)NC(=O)[C@H](C)NC(=O)[C@H](CC(C)C)NC(=O)[C@H](CCC(N)=O)NC(=O)[C@H](CCCNC(=N)N)NC(=O)[C@H](Cc1c[nH]cn1)NC(=O)[C@H](CCC(=O)O)NC(=O)[C@@H]1CCCN1)C(=O)N[C@@H](Cc1ccccc1)C(=O)N[C@@H](CCCCN)C(=O)N[C@@H](CC(C)C)C(=O)N[C@H](C(=O)N[C@@H](Cc1ccc(O)cc1)C(=O)N[C@@H](CCC(N)=O)C(=O)N[C@@H](CC(N)=O)C(=O)O)[C@@H](C)O [NS5 558-574] | 2820 | 1080 | 667 | 391 | 489 | 134 | 586 | 401 | – | 2650 | – | 539 | – | 1400 | 1930 | – | –
CC[C@H](C)[C@H](NC(=O)[C@@H](N)CCCCN)C(=O)N1CCC[C@H]1C(=O)NCC(=O)NCC(=O)N[C@@H](C)C(=O)N[C@@H](CCSC)C(=O)N[C@@H](Cc1ccc(O)cc1)C(=O)N[C@@H](C)C(=O)N[C@@H](CC(=O)O)C(=O)N[C@@H](CC(=O)O)C(=O)N[C@H](C(=O)N[C@@H](C)C(=O)NCC(=O)N[C@@H](Cc1c[nH]c2ccccc12)C(=O)N[C@@H](CC(=O)O)C(=O)N[C@H](C(=O)O)[C@@H](C)O)[C@@H](C)O [NS5 523-539] | 7.3 | 45 | 3170 | 4120 | 733 | 6560 | 9.3 | 15100 | – | 3130 | – | 1160 | 0.445 | 1430 | 13200 | – | –
CC[C@H](C)[C@H](NC(=O)[C@H](CCSC)NC(=O)[C@H](CC(=O)O)NC(=O)[C@H](CO)NC(=O)[C@H](CCC(=O)O)NC(=O)[C@H](CC(C)C)NC(=O)[C@@H](NC(=O)CNC(=O)[C@H](CC(N)=O)NC(=O)[C@@H](N)CO)C(C)C)C(=O)N[C@H](C(=O)N1CCC[C@H]1C(=O)N[C@@H](CCCCN)C(=O)N[C@@H](CO)C(=O)N[C@@H](CC(C)C)C(=O)O)[C@@H](C)CC [NS1 233-247] | – | 159 | – | 4070 | – | – | – | – | – | – | – | – | 3.87 | – | – | – | –
ALTGATEIQNSGGTS [Envelope 261-275] | – | 17500 | – | 3670 | – | – | – | – | – | – | – | – | 8.57 | – | – | – | –
CC(C)C[C@H](NC(=O)[C@H](CCCCN)NC(=O)CNC(=O)[C@H](CC(C)C)NC(=O)[C@@H](N)Cc1c[nH]cn1)C(=O)N[C@@H](CCC(=O)O)C(=O)N[C@@H](CC(C)C)C(=O)N[C@@H](CC(=O)O)C(=O)N[C@@H](Cc1ccccc1)C(=O)N[C@@H](CC(N)=O)C(=O)N[C@@H](Cc1ccc(O)cc1)C(=O)N[C@@H](CS)C(=O)N[C@@H](CCC(=O)O)C(=O)NCC(=O)N[C@H](C(=O)O)[C@@H](C)O [NS1 269-283] | – | 71 | – | 9470 | – | – | – | – | – | – | – | – | 0.085 | – | – | – | –
CC[C@H](C)[C@H](NC(=O)[C@H](C)NC(=O)[C@H](CC(N)=O)NC(=O)[C@H](C)N)C(=O)N[C@@H](Cc1ccccc1)C(=O)N[C@@H](CCCCN)C(=O)N[C@@H](CC(C)C)C(=O)N[C@H](C(=O)N[C@@H](Cc1ccc(O)cc1)C(=O)N[C@@H](CCC(N)=O)C(=O)N[C@@H](CC(N)=O)C(=O)N[C@@H](CCCCN)C(=O)N[C@H](C(=O)N[C@H](C(=O)N[C@@H](CCCCN)C(=O)N[C@H](C(=O)N[C@@H](CCC(N)=O)C(=O)O)C(C)C)C(C)C)C(C)C)[C@@H](C)O [NS5 564-580] | 390 | 576 | 1680 | 305 | 19 | 25 | 222 | 28 | 11 | 4810 | 100 | 2600 | – | – | – | – | –
CC[C@H](C)[C@H](NC(=O)[C@H](CS)NC(=O)[C@H](Cc1ccccc1)NC(=O)[C@H](CCC(N)=O)NC(=O)[C@@H](N)CC(N)=O)C(=O)N[C@@H](CCCCN)C(=O)N[C@H](C(=O)N[C@@H](CC(C)C)C(=O)N[C@@H](CC(N)=O)C(=O)N1CCC[C@H]1C(=O)N[C@@H](Cc1ccc(O)cc1)C(=O)N[C@@H](CCSC)C(=O)N1CCC[C@H]1C(=O)N[C@H](C(=O)N[C@H](C(=O)N[C@H](C(=O)N[C@@H](CCC(=O)O)C(=O)O)[C@@H](C)CC)C(C)C)[C@@H](C)O)C(C)C [NS5 175-191] | – | 1340 | – | 722 | – | – | – | – | – | – | – | – | 6.64 | – | – | – | –
CSCC[C@H](NC(=O)[C@H](CC(C)C)NC(=O)[C@H](CCCNC(=N)N)NC(=O)[C@H](Cc1c[nH]cn1)NC(=O)[C@H](CC(=O)O)NC(=O)[C@H](CS)NC(=O)[C@H](CC(C)C)NC(=O)[C@H](CCC(N)=O)NC(=O)[C@@H](NC(=O)[C@H](Cc1ccc(O)cc1)NC(=O)[C@@H](NC(=O)[C@@H](N)CCC(=O)O)C(C)C)[C@@H](C)O)C(=O)N[C@@H](CO)C(=O)N[C@@H](C)C(=O)N[C@@H](C)C(=O)O [NS1 173-187] | 502 | 57 | 1450 | 753 | 26 | 1660 | 787 | 1040 | – | 1290 | – | 900 | 6.15 | – | – | 4600 | 608
GTILVKVEYKGEDAP [Envelope 316-330] | – | 5290 | – | 5260 | – | – | – | – | – | – | – | – | 6.03 | – | – | – | –
CC(C)[C@H](NC(=O)[C@@H]1CCCN1C(=O)[C@@H](NC(=O)[C@H](C)NC(=O)[C@H](CO)NC(=O)[C@@H](N)CS)C(C)C)C(=O)N[C@@H](Cc1c[nH]cn1)C(=O)N[C@@H](Cc1c[nH]c2ccccc12)C(=O)N[C@H](C(=O)N1CCC[C@H]1C(=O)N[C@H](C(=O)N[C@@H](CO)C(=O)N[C@@H](CCCNC(=N)N)C(=O)N[C@H](C(=O)N[C@H](C(=O)N[C@@H](Cc1c[nH]c2ccccc12)C(=O)O)[C@@H](C)O)[C@@H](C)O)[C@@H](C)O)C(C)C [NS5 780-795] | – | 2340 | – | 1950 | – | – | – | – | – | – | – | – | 0.168 | – | – | – | –
